What was measured:
[1] = Bleeding events (ISTH definition) in NVAF patients receiving apixaban; association by odds ratio; assay type: in vivo, human
Description: The severity of bleeding was evaluated based on the definition provided by the International Society on Thrombosis and Hemostasis. In brief, events leading to a reduction in hemoglobin levels by at least 2 g/dL, fatal bleeding, or events occurring in critical body locations were considered major bleeding events. Events that required hospitalization, medical or surgical intervention, or a change in antithrombotic treatment were considered clinically relevant non-major. Any acute bleeding event not meeting the criteria for major or clinically relevant non-major bleeding was classified as a minor bleeding episode.
In all enrolled patients, allele-specific real-time PCR was used to identify polymorphic variants of ABCB1 (rs1045642 3435C>T, rs2032582 2677G>T/A, rs1128503 1236C>T), CYP3A4*22 (rs35599367), and CYP3A5*3 (rs776746, 6986A>G). Commercial kits (OOO Syntol, Moscow, Russia) were employed on a CFX96 Touch™ Real-Time PCR Detection System (Bio-Rad, Hercules, CA, USA).
The study data were subjected to statistical processing using both parametric and nonparametric methods. Statistical analyses were performed with the standard software package StatSoft Statistica 10.0 (Dell, Round Rock, TX, USA). Quantitative variables were assessed for normality using the Kolmogorov–Smirnov test (for sample sizes > 50), as well as by evaluating skewness and kurtosis. For quantitative variables with a normal distribution, the data were organized into variational series, and arithmetic means (M) with standard deviations (SD) were calculated. Comparisons of means in normally distributed quantitative datasets were performed using Student’s t-test, with obtained values evaluated against critical thresholds. For categorical variables, differences in frequency distributions were assessed using the χ^2 test, and Fisher’s exact test was applied when the number of observations was small. To quantify the effect of genetic markers on complication occurrence, odds ratios (ORs) with 95% confidence intervals (CIs) were calculated. Statistical significance for all analyses was defined at p < 0.05. For genetic analyses, multiple-testing correction was performed using the Benjamini–Hochberg false discovery rate (FDR) procedure.

[2] = cited from earlier work

SMILES	Association with incidence of bleeding events ([1]; simvastatin (n = 8) as co-medication with apixaban)	Interindividual variability in exposure [2]	Intraindividual variability in exposure [2]	Bleeding event in the context of surgery ([1]; both, human, in vivo)	Epistaxis ([1]; both, human, in vivo)	Gastrointestinal bleeding ([1]; both, human, in vivo)	Hematomas and ecchymoses ([1]; both, human, in vivo)	Peptic ulcer exacerbation ([1]; both, human, in vivo)	Uterine bleeding ([1]; both, human, in vivo)	OR of bleeding events by sex ([1]; both, human, in vivo, 1.95 years)
CCC(C)(C)C(=O)O[C@H]1C[C@@H](C)C=C2C=C[C@H](C)[C@H](CC[C@@H]3C[C@@H](O)CC(=O)O3)[C@H]21 [simvastatin]	did not show an increase in incidence of bleeding events									
COc1ccc(-n2nc(C(N)=O)c3c2C(=O)N(c2ccc(N4CCCCC4=O)cc2)CC3)cc1 [apixaban]		~30%	approximately 20%	1 case	31 cases	3 cases	3 cases	1 case	1 case	1.119

— PMC12562637 (Genes, 2025)
